The values below come from the SangsterLogP compilation.

In general, logP refers to the decadic logarithm of the partition coefficient of the neutral form, usually between octanol and water. A low value points to lower lipophilicity. What is called logD is the decadic logarithm of the distribution of all forms, ionised or not, between an organic phase and buffer at a given pH. Lower therefore signals lower lipophilicity.

Settings in the first data set: not given
In the case of `COP(=S)(Oc1cc(Cl)c(Br)cc1Cl)c1ccccc1` (centres undefined), the logP turned out to be 5.88.
The same measure, in the same setting: the same measure for `COP(=S)(OC)Oc1cc(Cl)c(Br)cc1Cl`: 4.88.
Same read-out and setting: for `CCOP(=S)(OCC)Oc1ccc(S(C)=O)cc1` (centres undefined) the value was 2.23; for `COP(=S)(OC)SCSc1ccc(Cl)cc1`, 4.82.
Consider `COP(=O)(OC)SCn1nnc2ccccc2c1=O`, for which the logP was determined as 0.78.
Same read-out and setting: for `CCOP(=O)(OCC)Oc1cc(C)nc(C(C)C)n1` the value was 2.07; for `CCOP(=S)(OCC)Oc1cc(Cl)c(Br)cc1Cl`, 5.68; for `CCOP(=O)(OCC)Oc1ccc([N+](=O)[O-])cc1`, 1.98.
Consider `CCOP(=S)(OCC)Oc1ccc(S(C)(=O)=O)cc1`, for which the logP came out at 2.56.
Same read-out and setting: the same measure for `CCOP(=S)(OCC)Oc1cc(C)nc(C(C)C)n1`: 3.81; for `CCOP(=O)(OCC)SCS(=O)(=O)CC`: 1.98.
On the same count and under the same terms, the same measure for `COP(=O)(Oc1cc(Cl)c(Br)cc1Cl)c1ccccc1` (centres undefined): 4.58; for `COP(=S)(OC)SCN1C(=O)c2ccccc2C1=O`: 2.78; for `CCOP(=S)(OCC)Oc1ccc(SC)cc1`: 4.16.
Still for that read-out and setting: for `Cc1cc(Cl)ccc1/N=C/N(C)C` the value was 2.89; for `CCOP(=S)(OCC)Oc1ccc(N)cc1`, 2.6; for `CCOP(=S)(OCC)SCCS(=O)(=O)CC`, 1.87.
As to `CCOP(=S)(OCC)Oc1cc(C)nc(N(CC)CC)n1`, the logP turned out to be 4.85.

The data set is the same for the next values; noted with them: pH 9.0.
The compound `CNC(=O)Oc1ccc(N(C)C)c(C)c1` returned a logD of 1.9.
